According to the NIST ThermoML archive (doi:10.1016/j.fluid.2008.03.004):

Experiment: xn = mol fraction of the nth substance listed
Details: 101 kPa, Liquid; for speed of sound: Sing-around technique in a fixed-path interferometer

CCOC(C)(C)C [2-ethoxy-2-methylpropane] + Cc1ccc(C)cc1
Details | mass density [kg/m3] | speed of sound [m/s]
288.15 K, x1 = 0.062 | 857.461 | 1332.5
288.15 K, x1 = 0.123 | 849.969 | 1315.3
288.15 K, x1 = 0.238 | 836.401 | 1283.6
288.15 K, x1 = 0.35 | 822.903 | 1252.6
288.15 K, x1 = 0.455 | 810.328 | 1223.7
288.15 K, x1 = 0.557 | 798.162 | 1195.8
288.15 K, x1 = 0.654 | 786.517 | 1169.2
288.15 K, x1 = 0.746 | 775.593 | 1144.4
288.15 K, x1 = 0.834 | 764.97 | 1120.8
288.15 K, x1 = 0.902 | 756.828 | 1102.5
288.15 K, x1 = 0.959 | 749.995 | 1087.2
288.15 K, x1 = 1 | 744.955 | 1076.4
290.65 K, x1 = 0.062 | 855.329 | 1321.8
290.65 K, x1 = 0.123 | 847.837 | 1304.4
290.65 K, x1 = 0.238 | 834.222 | 1272.7
290.65 K, x1 = 0.35 | 820.676 | 1241.5
290.65 K, x1 = 0.455 | 808.058 | 1212.6
290.65 K, x1 = 0.557 | 795.855 | 1184.6
290.65 K, x1 = 0.654 | 784.174 | 1158
290.65 K, x1 = 0.746 | 773.205 | 1133.1
290.65 K, x1 = 0.834 | 762.549 | 1109.4
290.65 K, x1 = 0.902 | 754.379 | 1091
290.65 K, x1 = 0.959 | 747.527 | 1076
290.65 K, x1 = 1 | 742.482 | 1065.1
293.15 K, x1 = 0.062 | 853.16 | 1311
293.15 K, x1 = 0.123 | 845.64 | 1293.7
293.15 K, x1 = 0.238 | 831.974 | 1261.7
293.15 K, x1 = 0.35 | 818.389 | 1230.6
293.15 K, x1 = 0.455 | 805.723 | 1201.5
293.15 K, x1 = 0.557 | 793.481 | 1173.4
293.15 K, x1 = 0.654 | 781.767 | 1146.8
293.15 K, x1 = 0.746 | 770.753 | 1121.7
293.15 K, x1 = 0.834 | 760.076 | 1098.1
293.15 K, x1 = 0.902 | 751.872 | 1079.6
293.15 K, x1 = 0.959 | 745.006 | 1064.5
293.15 K, x1 = 1 | 739.947 | 1053.7
295.65 K, x1 = 0.062 | 850.963 | 1300.3
295.65 K, x1 = 0.123 | 843.426 | 1282.9
295.65 K, x1 = 0.238 | 829.705 | 1250.9
295.65 K, x1 = 0.35 | 816.087 | 1219.6
295.65 K, x1 = 0.455 | 803.381 | 1190.5
295.65 K, x1 = 0.557 | 791.102 | 1162.2
295.65 K, x1 = 0.654 | 779.339 | 1135.5
295.65 K, x1 = 0.746 | 768.276 | 1110.5
295.65 K, x1 = 0.834 | 757.573 | 1086.7
295.65 K, x1 = 0.902 | 749.342 | 1068.2
295.65 K, x1 = 0.959 | 742.457 | 1053.1
295.65 K, x1 = 1 | 737.374 | 1042.2
298.15 K, x1 = 0.062 | 848.771 | 1289.8
298.15 K, x1 = 0.123 | 841.223 | 1272.5
298.15 K, x1 = 0.238 | 827.443 | 1240.2
298.15 K, x1 = 0.35 | 813.789 | 1208.9
298.15 K, x1 = 0.455 | 801.037 | 1179.6
298.15 K, x1 = 0.557 | 788.722 | 1151.4
298.15 K, x1 = 0.654 | 776.911 | 1124.5
298.15 K, x1 = 0.746 | 765.812 | 1099.4
298.15 K, x1 = 0.834 | 755.077 | 1075.5
298.15 K, x1 = 0.902 | 746.808 | 1057
298.15 K, x1 = 0.959 | 739.904 | 1041.9
298.15 K, x1 = 1 | 734.806 | 1031
300.65 K, x1 = 0.062 | 846.559 | 1279.4
300.65 K, x1 = 0.123 | 839.002 | 1262.1
300.65 K, x1 = 0.238 | 825.16 | 1229.7
300.65 K, x1 = 0.35 | 811.468 | 1198.2
300.65 K, x1 = 0.455 | 798.683 | 1168.9
300.65 K, x1 = 0.557 | 786.313 | 1140.5
300.65 K, x1 = 0.654 | 774.466 | 1113.6
300.65 K, x1 = 0.746 | 763.325 | 1088.4
300.65 K, x1 = 0.834 | 752.561 | 1064.5
300.65 K, x1 = 0.902 | 744.252 | 1045.9
300.65 K, x1 = 0.959 | 737.326 | 1030.6
300.65 K, x1 = 1 | 732.225 | 1019.8
303.15 K, x1 = 0.062 | 844.378 | 1269.2
303.15 K, x1 = 0.123 | 836.793 | 1251.8
303.15 K, x1 = 0.238 | 822.9 | 1219.2
303.15 K, x1 = 0.35 | 809.173 | 1187.7
303.15 K, x1 = 0.455 | 796.342 | 1158.2
303.15 K, x1 = 0.557 | 783.933 | 1129.8
303.15 K, x1 = 0.654 | 772.039 | 1102.8
303.15 K, x1 = 0.746 | 760.846 | 1077.5
303.15 K, x1 = 0.834 | 750.063 | 1053.5
303.15 K, x1 = 0.902 | 741.716 | 1034.8
303.15 K, x1 = 0.959 | 734.772 | 1019.6
303.15 K, x1 = 1 | 729.647 | 1008.6
305.65 K, x1 = 0.062 | – | 1258.9
305.65 K, x1 = 0.123 | – | 1241.4
305.65 K, x1 = 0.238 | – | 1208.8
305.65 K, x1 = 0.35 | – | 1177.1
305.65 K, x1 = 0.455 | – | 1147.5
305.65 K, x1 = 0.557 | – | 1119
305.65 K, x1 = 0.654 | – | 1091.9
305.65 K, x1 = 0.746 | – | 1066.6
305.65 K, x1 = 0.834 | – | 1042.5
305.65 K, x1 = 0.902 | – | 1023.8
305.65 K, x1 = 0.959 | – | 1008.5
305.65 K, x1 = 1 | – | 997.52
